Results taken from paper PMC5740381 (Antimicrobial Agents and Chemotherapy, 2017).

Legend:
HCV NS3/4A protease GT1b = HCV NS3/4A protease GT1b (Hepatitis C virus genotype 1b, UniProt Q9WPH5); test: HCV NS3/4A protease biochemical assay; details: 30 min preincubation, read-out: Mean IC50 ± SD
Excerpt: (§1) . […] Genes encoding NS3/4A were derived from laboratory strains 1a-H77 (GenBank accession number NC_004102) and 1b-N (GenBank accession number AF139594) or from clinical samples from patients infected with genotype 2a, 2b, 3a, or 4a. All patients provided written informed consent. Clinical studies were designed according to Good Clinical Practice guidelines, the Declaration of Helsinki, and applicable local regulations, with independent ethics committee or institutional review board approval for all study sites. The genotype 5a NS3/4A gene sequence was synthetically constructed based on the sequence of the clinical isolate SA13 (GenBank accession number AF064490) ([48]), whereas the genotype 6a NS3/4A gene sequence was synthetically constructed based on a consensus sequence derived from the alignment of 15 genotype 6a sequences available in GenBank. The NS3/4A genes were each cloned into the protein expression vector pET14b (Novagen, Madison, WI), and a clone with an NS3/4A protease sequence that matched the consensus sequence for each sample was subsequently selected for protein expression and purification. Protease activity was measured by continuous monitoring of the fluorescence change associated with the cleavage of a fluorogenic depsipeptide (EDANS/DABCYL) substrate using a purified recombinant HCV NS3/4A protease as described previously ([49]). […]

HCV NS3/4A protease GT2b = HCV NS3/4A protease GT2b (Hepatitis C virus genotype 2b, UniProt P26661); test: HCV NS3/4A protease biochemical assay; details: 30 min preincubation, read-out: Mean IC50 ± SD
Excerpt: as §1

HCV NS3/4A protease GT6a = HCV NS3/4A protease GT6a (Hepatitis C virus genotype 6a, UniProt O39927); test: HCV NS3/4A protease biochemical assay; details: 30 min preincubation, read-out: Mean IC50 ± SD
Excerpt: as §1

[1] = tested on: HCV genotype 1 to 6 NS3/4A proteases; test: HCV NS3/4A protease biochemical assay, all genotypes; set-up: species or system Hepatitis C virus; details: read-out: IC50, range over proteases
Excerpt: as §1

Chymase = molecular target: T1, Chymase (Homo sapiens, UniProt P23946); test: Human protease biochemical assay; details: read-out: Mean IC50 ± SD
T1 construct: purchased Sigma-Aldrich
Protocol: (§2) […]; catalog number M9771; Sigma-Aldrich), and 0.05 U/ml elastase (excitation wavelength = 370 nm, emission wavelength = 460 nm); (ii) for chymase, 0.4 M Tris, pH 8.0, 1.8 M NaCl, 9% dimethyl sulfoxide, 0.4 mM substrate (Suc-AAF-AMC; catalog number S8758; Sigma-Aldrich), and 0.063 U/ml chymase (excitation wavelength = 370 nm, emission wavelength = 460 nm); (iii) for cathepsin B, 50 mM MES (morpholineethanesulfonic acid), pH 6.0, 50 mM NaCl, 2 mM EDTA, 0.1% Triton X-100, 0.4 mM substrate (Z-RR-AMC; catalog number C5429; Sigma-Aldrich), and 1.7 μg/ml cathepsin B (excitation wavelength = 370 nm, emission wavelength = 460 nm); (iv and v) for chymotrypsin types II and VII, 50 mM Tris, pH 8, 10 mM CaCl2, 0.1% Triton X-100, 0.25 mM substrate (Suc-AAF-AMC; catalog number S8758; Sigma-Aldrich), and 0.5 nM chymotrypsin type II or type VII (excitation wavelength = 370 nm, emission wavelength = 460 nm); (vi) for kallikrein, 50 mM Tris, pH 7.4, 0.5 mM EDTA, 0.05% Tween 20, 150 mM NaCl, 0.35 mM substrate (H-Pro-Phe-Arg-AMC; catalog number I-1295; Bachem), and 2 nM kallikrein (excitation wavelength = 355 nm, emission wavelength = 460 nm); and (vii) for urokinase, 50 mM Tris, pH 7.4, 0.15 M NaCl, 0.5% Pluronic F-68, 0.2 mM substrate (pyro-Glu Arg-p-nitroanilide-HCl; catalog number S-2444; Diapharma), and 3 nM urokinase (absorbance at 405 nm).

Chymotrypsin type II = molecular target: T2, Chymotrypsin type II (Bos taurus, UniProt P00766); test: Human protease biochemical assay; details: read-out: Mean IC50 ± SD
T2 construct: purchased Sigma-Aldrich
Protocol: as §2

Chymotrypsin type VII = molecular target: T3, Chymotrypsin type VII (Bos taurus, UniProt P00766); test: Human protease biochemical assay; details: read-out: Mean IC50 ± SD
T3 construct: purchased Sigma-Aldrich
Protocol: as §2

Elastase = molecular target: T4, Elastase (Homo sapiens, UniProt P08246); test: Human protease biochemical assay; details: read-out: Mean IC50 ± SD
T4 construct: purchased Sigma-Aldrich
Protocol: as §2

Urokinase = molecular target: T5, Urokinase (Homo sapiens, UniProt P00749); test: Human protease biochemical assay; details: read-out: Mean IC50 ± SD
T5 construct: purchased Sigma-Aldrich
Protocol: as §2

[2] = tested on: HCV genotype 3a replicon cells; test: Drug-resistant colony selection in replicon cells; type: cell-based, Hepatitis C virus
Excerpt: (§3) . After approximately 3 weeks of treatment, the surviving replicon colonies in one plate for each selection condition were stained with crystal violet and counted, whereas approximately 20 to 30 colonies in a replicate plate or most of the colonies, if less than 20 colonies survived the selection, were picked and further expanded for genotyping. The expanded colonies were lysed in CellsDirect lysis buffer (Invitrogen, MA), and the NS3-coding region from each colony was amplified by reverse transcription-PCR and sequenced. For genotype 1a, 1b, 2a, and 5a colonies, the full-length NS3 sequence was determined, whereas for colonies of the chimeric replicon containing the N-terminal region of NS3 from genotype 2b, 3a, 4a, or 6a, the sequence encoding the NS3 N-terminal region was determined. We defined a substitution in a replicon to be an amino acid difference in a sequence from a posttreatment sample relative to the sequence of the corresponding untreated sample. For resistance selection studies, NS3 substitutions detected at the following amino acid positions associated with resistance to the HCV PI class in >2 colonies in each replicon selection are reported: 36, 43, 54, 55, 56, 80, 122, 155, 156, and 168. In addition, substitutions detected at other amino acid positions in the NS3 protease domain in >2 colonies in each replicon selection are also reported.

[3] = tested on: HCV genotype 5a replicon cells; test: Drug-resistant colony selection in replicon cells; type: cell-based, Hepatitis C virus
Excerpt: as §3

[4] = tested on: HCV genotype 1 to 6 replicons containing NS3 substitutions; test: Transient replicon assay with engineered substitutions, summary over genotypes; type: cell-based, Hepatitis C virus
Protocol: Mutagenesis was performed using a Change-IT multiple-mutation site-directed mutagenesis kit (USB, Cleveland, OH) or by cloning a synthesized DNA fragment encoding the amino acid substitution(s). The genotype 1a and 1b replicon shuttle vectors used for the introduction of the substitutions of interest in the NS3, NS5A, or NS5B gene for transient-transfection assays have been described previously ([28], [33]). The replicon shuttle vectors used for the introduction of substitutions in NS3 genes from other genotypes were similar to the stable replicon cell line constructs described above, except for the absence of the neo gene. After mutagenesis, the plasmids were linearized and RNA was transcribed and then used to transfect Huh-7 cells. Inhibition of HCV replication by the HCV inhibitors was measured by luciferase assay, as described above. Replication efficiency was calculated as a percentage of wild-type replication, as described previously ([28]).

T1 sequence (P23946 22-247): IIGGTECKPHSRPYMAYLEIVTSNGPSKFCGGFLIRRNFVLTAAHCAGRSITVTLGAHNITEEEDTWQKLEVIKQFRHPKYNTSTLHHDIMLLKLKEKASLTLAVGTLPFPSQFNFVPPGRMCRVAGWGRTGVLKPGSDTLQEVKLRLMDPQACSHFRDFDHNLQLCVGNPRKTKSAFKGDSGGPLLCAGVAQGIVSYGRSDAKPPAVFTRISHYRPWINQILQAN
T4 sequence (P08246 30-247 limits assumed): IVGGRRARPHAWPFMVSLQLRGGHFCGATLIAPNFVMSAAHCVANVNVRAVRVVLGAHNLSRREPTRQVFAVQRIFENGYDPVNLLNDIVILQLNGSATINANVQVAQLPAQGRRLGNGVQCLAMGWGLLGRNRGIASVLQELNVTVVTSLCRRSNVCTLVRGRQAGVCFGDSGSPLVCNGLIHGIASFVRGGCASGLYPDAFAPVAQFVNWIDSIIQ

Structure (SMILES)	IC50 (HCV NS3/4A protease GT1b)	IC50 (HCV NS3/4A protease GT2b)	IC50 (HCV NS3/4A protease GT6a)	IC50 [1]	IC50 (Chymase)	IC50 (Chymotrypsin type II)	IC50 (Chymotrypsin type VII)	IC50 (Elastase)	IC50 (Urokinase)	Colony survival ([2]; 10× EC50, 1 × 10^4 input cells)	Colony survival ([2]; 100× EC50)	Colony survival ([3]; 10× EC50)	Colony survival ([3]; 100× EC50)	Fold decrease in susceptibility ([4]; R155 substitutions in genotypes 1, 3 and 4)	Fold reduction in antiviral activity, range ([4]; replicons with A156 substitutions in genotypes 1 to 4)
CC(C)(C)[C@@H]1NC(=O)O[C@@H]2CCC[C@H]2OC/C=C/C(F)(F)c2nc3ccccc3nc2O[C@@H]2C[C@@H](C(=O)N[C@]3(C(=O)NS(=O)(=O)C4(C)CC4)C[C@H]3C(F)F)N(C2)C1=O [Glecaprevir, (3aR,7S,10S,12R,21E,24aR)-7-tert-butyl-N-[(1R,2R)-2-(difluoromethyl)-1-{[(1-methylcyclopropyl)sulfonyl]carbamoyl}cyclopropyl]-20,20-difluoro-5,8-dioxo-2,3,3a,5,6,7,8,11,12,20,23,24a-dodecahydro-1H,10H-9,12-methanocyclopenta[18,19][1,10,17,3,6]trioxadiazacyclononadecino[11,12-b]quinoxaline-10-carboxamide]	8.9 ± 1.6 nM	3.8 ± 0.96 nM	11.3 ± 1.8 nM	3.5 to 11.3 nM	> 200000 nM	> 200000 nM	> 200000 nM	> 200000 nM	> 200000 nM	0.1%	0.0003%	0.001%	0%	–	–
Cc1cnc(C(=O)N[C@H]2CCCCC/C=C\[C@@H]3C[C@@]3(C(=O)NS(=O)(=O)C3CC3)NC(=O)[C@@H]3C[C@@H](Oc4nc5ccccc5c5ccccc45)CN3C2=O)cn1 [Paritaprevir]	–	–	–	–	–	–	–	–	–	–	–	–	–	5.2- to 59 fold	1.7- to 155 fold
